# Assay results taken from ChEMBL document CHEMBL1158171, “Bioactivities of a series of phosphodiesterase type 5 (PDE-5) inhibitors as modelled by MIA-QSAR” (Eur J Med Chem, 2008).
# pIC50: −log10 of the molar value.
# Biological target: cGMP-specific 3',5'-cyclic phosphodiesterase (Homo sapiens, UniProt O76074)
row,SMILES,pIC50
1,CCN1C(=O)C2C(N=C(OC)N2Cc2ccc(OC)c(Cl)c2)N2C[C@@H](Cc3ccccc3)N=C12 (some centres undefined),8.80
2,CCN1C(=O)C2C(N=CN2Cc2ccc(O)c(Br)c2)N2C1=N[C@@H]1CCC[C@@H]12 (some centres undefined),8.20

# Tested on: not listed separately
# Test: Octanol-water partition coefficient, log P of the compound
# Format: physicochemical
row,SMILES,logP
1,CCSc1nc2c(n1Cc1ccc(OC)cc1)C(=O)N(CC)C1=N[C@@H]3CCC[C@@H]3N12,4.67
2,CCN1C(=O)c2c(nc(C#Cc3ccccc3)n2Cc2ccc(OC)cc2)N2C1=N[C@@H]1CCC[C@@H]12,5.5
3,CCN1C(=O)c2c(nc(C(N)=O)n2Cc2ccc(OC)cc2)N2C1=N[C@@H]1CCC[C@@H]12,2.47
4,CCOc1nc2c(n1Cc1ccc(O)c(Cl)c1)C(=O)N(CC)C1=N[C@@H]3CCC[C@@H]3N12,4.4
5,CCSc1nc2c(n1Cc1ccc(O)cc1)C(=O)N(CC)C1=N[C@@H]3CCC[C@@H]3N12,4.41
6,CCN1C(=O)c2c(nc(C(=O)OC)n2Cc2ccc(OC)cc2)N2C1=N[C@@H]1CCC[C@@H]12,3.38
7,CCN1C(=O)c2c(nc(C(N)=O)n2Cc2ccc(O)c(Cl)c2)N2C1=N[C@@H]1CCC[C@@H]12,2.76
8,CCN1C(=O)c2c(nc(OC)n2Cc2ccc(O)c(Cl)c2)N2C[C@@H](Cc3ccccc3)N=C12,5.36
9,CCN1C(=O)c2c(nc(OCc3ccccc3)n2Cc2ccc(O)c(Cl)c2)N2C[C@@H](Cc3ccccc3)N=C12,7.09
10,CCN1C(=O)c2c(nc(C#N)n2Cc2ccc(OC)cc2)N2C1=N[C@@H]1CCC[C@@H]12,3.59
11,CCN1C(=O)c2c(nc(OC)n2Cc2ccc(OC)c(Br)c2)N2C[C@@H](Cc3ccccc3)N=C12,5.89
12,CCN1C(=O)c2c(nc(OC)n2Cc2ccc(O)c(Cl)c2)N2C1=N[C@@H]1CCC[C@@H]12,4.06
13,CCN1C(=O)c2c(nc(C(F)(F)F)n2Cc2ccc(O)cc2)N2C1=N[C@@H]1CCC[C@@H]12,4.22
14,CCN1C(=O)c2c(nc(Cc3ccccc3)n2Cc2ccccc2)N2C1=N[C@@H]1CCC[C@@H]12,5.47
15,CCN1C(=O)c2c(nc(C(=O)NC)n2Cc2ccc(O)c(Cl)c2)N2C1=N[C@@H]1CCC[C@@H]12,3
16,CCN1C(=O)c2c(nc(OC)n2Cc2ccc(O)c(Br)c2)N2C[C@@H](Cc3ccccc3)N=C12,5.63
17,CCN1C(=O)c2c(nc(OC)n2Cc2ccc(OC)c(Br)c2)N2C1=N[C@@H]1CCC[C@@H]12,4.59
18,CCN1C(=O)c2c(nc(C#Cc3ccccc3)n2Cc2ccc(Cl)cc2)N2C1=N[C@@H]1CCC[C@@H]12,6.19
19,CCOc1nc2c(n1Cc1ccc(OC)cc1)C(=O)N(CC)C1=N[C@@H]3CCC[C@@H]3N12,4.1

row,SMILES,logP
1,CCN1C(=O)c2c(nc(C(N)=O)n2Cc2ccc(O)cc2)N2C1=N[C@@H]1CCC[C@@H]12,2.2
2,CCN1C(=O)c2c(nc(Cc3ccccc3)n2Cc2ccc(Cl)cc2)N2C1=N[C@@H]1CCC[C@@H]12,6.03
3,CCN1C(=O)c2c(nc(C(N)=O)n2Cc2ccc(O)c(Cl)c2)N2C[C@@H](Cc3ccccc3)N=C12,4.06
4,CCN1C(=O)c2c(nc(C(N)=O)n2Cc2ccc(OC)c(Br)c2)N2C1=N[C@@H]1CCC[C@@H]12,3.3
5,CCN1C(=O)c2c(nc(C#Cc3ccccc3)n2Cc2ccc(O)cc2)N2C1=N[C@@H]1CCC[C@@H]12,5.24
6,CCN1C(=O)c2c(nc(OC)n2Cc2ccc(OC)c(Cl)c2)N2C1=N[C@@H]1CCC[C@@H]12,4.32
7,CCN1C(=O)c2c(nc(Cc3ccccc3)n2Cc2ccc(OC)c(Cl)c2)N2C1=N[C@@H]1CCC[C@@H]12,5.9
8,CCN1C(=O)c2c(ncn2Cc2ccc(OC)c(Cl)c2)N2C1=N[C@@H]1CCC[C@@H]12,3.47
9,CCN1C(=O)c2c(ncn2Cc2ccc(OC)c(Br)c2)N2C1=N[C@@H]1CCC[C@@H]12,3.74
10,CCN1C(=O)c2c(nc(C(=O)NC)n2Cc2ccc(OC)c(Cl)c2)N2C1=N[C@@H]1CCC[C@@H]12,3.26
11,CCN1C(=O)c2c(nc(Cc3ccccc3)n2Cc2ccc(C)cc2)N2C1=N[C@@H]1CCC[C@@H]12,5.95
12,CCN1C(=O)c2c(nc(OC)n2Cc2ccc(OC)c(C#N)c2)N2C[C@@H](Cc3ccccc3)N=C12,5.1
13,CCN1C(=O)c2c(nc(OC)n2Cc2ccc(O)c(Br)c2)N2C1=N[C@@H]1CCC[C@@H]12,4.33
14,CCN1C(=O)c2c(nc(Cc3ccccc3)n2Cc2ccc3c(c2)OCO3)N2C1=N[C@@H]1CCC[C@@H]12,5.25
15,CCOc1nc2c(n1Cc1ccc(OC)c(Br)c1)C(=O)N(CC)C1=N[C@@H]3CCC[C@@H]3N12,4.93
16,CCN1C(=O)c2c(nc(C(N)=O)n2Cc2ccc(OC)c(Cl)c2)N2C[C@@H](Cc3ccccc3)N=C12,4.32
17,CCN1C(=O)c2c(nc(C(N)=O)n2Cc2ccc(O)c(Br)c2)N2C1=N[C@@H]1CCC[C@@H]12,3.03
18,CCOc1nc2c(n1Cc1ccc(OC)c(Cl)c1)C(=O)N(CC)C1=N[C@@H]3CCC[C@@H]3N12,4.66
